Test results reported in patent US6368529B1, “Lignocellulosic composite” (U.S. Borax Inc., priority 2000, dated 2002).

How the values were obtained:
[1] = tested on: Gloeophyllum trabeum (ATCC 11539); test: Soil block decay test (AWPA E10-87), brown rot; type: cell-based
Description: (§1) Wood flakeboard was manufactured by conventional wood processing techniques, incorporating various borates at a range of concentrations, from 0.5 to 2.0% boric acid equivalent (BAE). Boric acid (H3BO3) equivalent is a commonly used convention for comparing various borates on an equivalent contained-boron basis. For each borate/loading combination, fifteen pounds of aspen (Populus tremuloides) furnish having an average particle size of about 2.5×0.75×0.025 inches, was blended with 0.75 pounds (5%) Rubinate 1840 (product of ICI), a polymeric methylene diphenyl diisocyanate adhesive, 0.11 pounds (0.75%) of Cascowax EW 403HS (product of Borden) and various concentrations of nine test borates. For each borate/loading combination, three 18″×18″ composite boards of 0.5 inch thickness were formed by pressing for 210 seconds at (180 seconds pressure, 30 seconds pressure release) at 204.5° C. (the pressure was kept in excess of 6000 psi during the pressure cycle). Each board was trimmed to 15″×15″ and cut to produce internal bond and analytical/soil block specimens for evaluation. Replicates were cut from the inner portion of the boards. Four internal bond, two leaching panels and twenty analytical/soil block specimens were cut from each board.
(§2) The panels to be leached (4.5″×4.5″) were edge sealed with an epoxy sealant and leached for two weeks. Leaching began with pressure treatment of the specimens with water for 30 minutes under vacuum and one hour under pressure. The specimens were removed from the pressure treatment chamber and the residual water was changed after two hours, then daily for the remainder of the leaching period. Afterward, they were trimmed to remove the sealed edges and cut into analytical/soil block test samples. Unleached and leached analytical/soil block samples for each board type were separately randomized. Fifteen were analyzed for borate content and ten were retained for the soil block decay test.
(§3) The soil block test was conducted in accordance with AWPA E10-87, with the exception that soil block dimensions were 1.0″×1.0″×0.5″. The fungi used were Gloeophyllum trabeum (ATCC 11539) for brown rot test and Trametes versicolor (MAD 697) for white rot test. An untreated composite control was run both unleached and leached. Solid southern yellow pine and birch were also run as unleashed controls against G. trabeum and T. versicolor, respectively as a test of fungal vigor.

[2] = Borate content of composite after two weeks water leaching; type: physicochemical; conditions: leached two weeks
Protocol: as §2

[3] = Bulk solids flow testing, J. R. Johanson Indicizer System; type: physicochemical; conditions: for Hopper Index Stainless Steel / Chute Index Stainless Steel: 304-2B Stainless Steel; for Hopper Index Stainless Steel / Hopper Index Plastic / Hopper Index Carbon Steel: maximum angle from the vertical, larger is better; for Chute Index Stainless Steel / Chute Index Plastic / Chute Index Carbon Steel: minimum angle from horizontal, smaller is better; for Hopper Index Plastic / Chute Index Plastic: Tivar UHMWPE plastic; for Hopper Index Carbon Steel / Chute Index Carbon Steel: aged carbon steel; for Arching Index / Ratholing Index: multiple of the discharge opening, less than 1 necessary for free flow, average of 3-6 tests
Description: Bulk solids flow testing was done using the J. R. Johanson Indicizer System, including a Hang-up Indicizer and Hopper Indicizer, manufactured by J R Johanson, Inc. 712 Fiero Lane #37, San Luis Obispo, Calif. 93401. The test procedures are described in detail in their company literature (BULK SOLIDS INDICES TESTING, Hang-up Indicizer™ Instruction Manual ©JR Johanson, Inc. 1991 and BULK SOLIDS INDICES TESTING, Hopper Indicizer™ Instruction Manual ©JR Johanson, Inc. 1991). The results are presented in the following Table 3 as the Arching Index, Ratholing Index, Hopper Index and Chute Index, which are the average of several tests (3-6). The meaning and usefulness of these flow indices in evaluating the flow properties of bulk solids are also described in literature from JR Johanson, Inc., including Binside Scoop™, Vol. 7, No. 2, Fall 1994, Binside Scoop™, Vol. 8, No. 3, Winter 1995, and “Bulk solids Flow Indices—A Simplified Evaluation system”, by Jerry R. Johanson, ©JR Johanson, 1991.
Arching Index—A tendency of a cohesive material is to plug up the opening of a bin by forming an “arch” over the discharge opening. The arching index is given as a multiple of the discharge opening, so less than 1 is necessary for free flow. Numbers greater than 1 reflect a need to enlarge the opening.
Ratholing Index—A tendency of a cohesive material is to hang up on the sides of a bin while an open hole forms in the center and flow ceases. Rathole indices are also given as a multiple of the discharge opening and a number of less than 1 is necessary for free flow. Numbers greater than 1 mean the bins should be redesigned.
Hopper Index—The maximum angle, measured in degrees from the vertical, that is required for the conical portion of a hopper in order to produce reliable mass flow. A larger number is better.
Chute Index—The minimum angle, measured in degrees from horizontal, required for flow down a chute and to prevent material buildup at impact areas. A smaller number is better. Chute indices may often be close to the angle of repose.
Both hopper and chute indices measurements involve friction over a specified surface and measurements are made using substrates of the material of construction. The substrates used for these tests are 304-2B Stainless Steel, aged carbon steel and Tivar UHMWPE (ultra high molecular weight polyethylene) plastic.

[4] = tested on: Trametes versicolor (MAD 697); test: Soil block decay test (AWPA E10-87), white rot; type: cell-based
Description: as §1, §2, §3

[5] = leached two weeks, target loading 0.5% BAE (0.09% B)
[6] = leached two weeks, target loading 1.0% BAE (0.17% B)
[7] = leached two weeks, target loading 2.0% BAE (0.35% B)
[8] = unleached aspen flakeboard, target loading 0.5% BAE (0.09% B)
[9] = unleached aspen flakeboard, target loading 1.0% BAE (0.17% B)
[10] = unleached aspen flakeboard, target loading 2.0% BAE (0.35% B)
[11] = target loading 0.5% BAE (0.09% B)
[12] = target loading 1.0% BAE (0.17% B)
[13] = target loading 2.0% BAE (0.35% B)

Row | Molecule | Mean % Wt. Loss G. trabeum [1, 5] | Mean % Wt. Loss G. trabeum [1, 6] | Mean % Wt. Loss G. trabeum [1, 7] | Mean % Wt. Loss G. trabeum [1, 8] | Mean % Wt. Loss G. trabeum [1, 9] | Mean % Wt. Loss G. trabeum [1, 10] | Assay % B [2, 11] | Assay % B [2, 12] | Assay % B [2, 13] | Chute Index Plastic [3] | Mean % Wt. Loss T. versicolor [4, 5] | Mean % Wt. Loss T. versicolor [4, 6] | Mean % Wt. Loss T. versicolor [4, 7] | Mean % Wt. Loss T. versicolor [4, 8] | Mean % Wt. Loss T. versicolor [4, 9] | Mean % Wt. Loss T. versicolor [4, 10] | other results
1 | Colemanite [Colemanite (2)] | 3.4% | 1.6% | 1.3% | 0.8% | 0.6% | 1.1% | 0.04 % B | 0.08 % B | 0.18 % B | 90 degrees | 19.9% | 5.1% | 2.2% | 5.1% | 2.3% | 2.2% | Comparison with zinc borate against G. trabeum ([1]; after leaching): roughly comparable to zinc borate; Hopper Index Stainless Steel ([3]; listed as Colemanite F): 1.3 degrees; Chute Index Stainless Steel ([3]; listed as Colemanite F): 90 degrees; Hopper Index Plastic ([3]; listed as Colemanite F): 4.2 degrees; Hopper Index Carbon Steel ([3]; listed as Colemanite F): 2.7 degrees; Chute Index Carbon Steel ([3]; listed as Colemanite F): 90 degrees; Arching Index ([3]; listed as Colemanite F): 0.4; Ratholing Index ([3]; listed as Colemanite F): 3.9; Comparison with zinc borate against T. versicolor ([4]; after leaching): roughly comparable to zinc borate
2 | Ulexite | 6.6% | 1.0% | 1.3% | 1.4% | 0.8% | 1.8% | 0.03 % B | 0.08 % B | 0.11 % B |  | 22.3% | 11.0% | 7.2% | 13.9% | 3.4% | 3.0% | 
3 | Hydroboracite | 9.4% | 4.2% | 1.8% | 1.1% | 1.0% | 2.2% | 0.05 % B | 0.06 % B | 0.13 % B |  | 27.1% | 21.0% | 4.5% | 2.8% | 3.6% | 2.2% | 
4 | Zinc Borate [reference compound] | 2.3% | 0.9% | 0.8% | 0.9% | 0.8% | 1.0% | 0.05 % B | 0.10 % B | 0.23 % B | 58 degrees | 22.9% | 7.0% | 2.0% | 8.3% | 2.9% | 1.6% | Hopper Index Stainless Steel [3]: 13 degrees; Chute Index Stainless Steel [3]: 38 degrees; Hopper Index Plastic [3]: 13 degrees; Hopper Index Carbon Steel [3]: 12 degrees; Chute Index Carbon Steel [3]: 44 degrees; Arching Index [3]: 0.5; Ratholing Index [3]: 2.9
5 | Gowerite | 7.4% | 5.8% | 3.1% | 0.9% | 0.9% | 1.3% | 0.04 % B | 0.07 % B | 0.09 % B |  | 24.7% | 14.7% | 11.8% | 5.5% | 3.1% | 2.6% | 
6 | Nobleite | 5.4% | 1.4% | 1.5% | 1.1% | 1.0% | 1.4% | 0.03 % B | 0.06 % B | 0.09 % B | 41 degrees | 27.6% | 11.6% | 10.1% | 5.3% | 3.6% | 2.6% | Hopper Index Stainless Steel [3]: 16 degrees; Chute Index Stainless Steel [3]: 45 degrees; Hopper Index Plastic [3]: 17 degrees; Hopper Index Carbon Steel [3]: 14 degrees; Chute Index Carbon Steel [3]: 47 degrees; Flow properties, summary ([3]; compared with zinc borate, Colemanite F and Colemanite, Glass Grade): superior flow properties; Arching Index [3]: 0.2; Ratholing Index [3]: 0.5
7 | O=BOB=O [Boric Oxide (60m), Boric Oxide, reference compound] | 8.0% | 6.0% | 3.3% | 1.6% | 0.7% | 1.1% | 0.02 % B | 0.03 % B | 0.07 % B |  | 50.4% | 35.8% | 23.2% | 7.6% | 3.6% | 3.7% | 
8 | O=BOB=O [Boric Oxide (4m), Boric Oxide, reference compound] | 15.5% | 7.4% | 3.0% | 2.6% | 1.4% | 1.7% | 0.02 % B | 0.04 % B | 0.09 % B |  | 34.3% | 29.5% | 9.5% | 7.5% | 9.0% | 2.9% | 
